tested on: rabbit skeletal myofibrils (fast skeletal myofibrils); assay: Activation of fast skeletal myofibrils (PUMA assay, PK/LDH-coupled ATPase at pCa25); format: biochemical; details: AC1.4 determined according to the procedure of Example 39; reported as class symbols
Procedure, shortened: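 Detergent-washed rabbit psoas myofibrils (~90% fast fibres, calcium-regulated) assayed at calcium giving 25% of maximal ATPase rate (pCa25). ADP turnover coupled via pyruvate kinase/lactate dehydrogenase to NADH oxidation, read at 340 nm. Buffer 12 mM PIPES, 2 mM MgCl2, 1 mM DTT, pH 6.8; AC1.4 values derived.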

| Compound | Mean AC1.4 |
| --- | --- |
| CC(C)(CNc1ccc(C(=O)N[C@H]2CCC[C@H]2C(N)=O)nn1)c1ccc(F)cc1 (stereo in doubt) [(2S,1R)-2-[(6-{[2-(4-fluorophenyl)-2-methylpropyl]amino}pyridazin-3-yl)carbonylamino]cyclopentane-carboxamide] | D (D=>20 uM) |
| CC(=O)c1ccc(NCC(C)(C)c2ccc(F)cc2)nn1 [1-(6-{[2-(4-fluorophenyl)-2-methylpropyl]amino}pyridazin-3-yl)ethan-1-one] | D (D=>20 uM) |
| NC(=O)c1cccc(-c2ccc(NCC3(C(=O)O)CCC3)nn2)c1 [1-({[6-(3-carbamoylphenyl)pyridazin-3-yl]amino}methyl)cyclobutane-carboxylic acid] | D (D=>20 uM) |
| N#Cc1cccc(-c2ccc(NCC3(C(=O)O)CCC3)nn2)c1 [1-({[6-(3-cyanophenyl)pyridazin-3-yl]amino}methyl)cyclobutane-carboxylic acid] | D (D=>20 uM) |
| CC(C)(CNc1ccc(-c2ccc3[nH]nc(C(O)CO)c3c2)nn1)c1ccc(F)cc1 (centres unmarked) [1-[5-(6-{[2-(4-fluorophenyl)-2-methylpropyl]amino}pyridazin-3-yl)-1H-indazol-3-yl]ethane-1,2-diol] | B (B=1-10 uM) |
| CC(C)(CNc1ccc(C(=O)N2CCC2C(N)=O)nn1)c1ccc(F)cc1 (centres unmarked) [1-[(6-{[2-(4-fluorophenyl)-2-methylpropyl]amino}pyridazin-3-yl)carbonyl]azetidine-2-carboxamide] | D (D=>20 uM) |
| CC(C)(CNc1ccc(C(=O)N2CCCCC2C(N)=O)nn1)c1ccc(F)cc1 (centres unmarked) [1-[(6-{[2-(4-fluorophenyl)-2-methylpropyl]amino}pyridazin-3-yl)carbonyl]piperidine-2-carboxamide] | D (D=>20 uM) |
| CC(C)(CNc1ccc(C(=O)N2CCCC(C(N)=O)C2)nn1)c1ccc(F)cc1 (centres unmarked) [1-[(6-{[2-(4-fluorophenyl)-2-methylpropyl]amino}pyridazin-3-yl)carbonyl]piperidine-3-carboxamide] | D (D=>20 uM) |
| CC(C)(CNc1ccc(C(=O)N2CCC(C(N)=O)CC2)nn1)c1ccc(F)cc1 [1-[(6-{[2-(4-fluorophenyl)-2-methylpropyl]amino}pyridazin-3-yl)carbonyl]piperidine-4-carboxamide] | D (D=>20 uM) |
| CC(C)(CNc1ccc(C(=O)N2CCCC2C(N)=O)nn1)c1ccc(F)cc1 (centres unmarked) [1-[(6-{[2-(4-fluorophenyl)-2-methylpropyl]amino}pyridazin-3-yl)carbonyl]pyrrolidine-2-carboxamide] | D (D=>20 uM) |
| CC(C)(CNc1ccc(C(=O)N2CCC(C(N)=O)C2)nn1)c1ccc(F)cc1 (centres unmarked) [1-[(6-{[2-(4-fluorophenyl)-2-methylpropyl]amino}pyridazin-3-yl)carbonyl]pyrrolidine-3-carboxamide] | D (D=>20 uM) |
| CC(C)(CNc1ccc(C(=O)NC2(C(N)=O)CC2)nn1)c1ccc(F)cc1 [1-[(6-{[2-(4-fluorophenyl)-2-methylpropyl]amino}pyridazin-3-yl)carbonylamino]cyclopropane-carboxamide] | D (D=>20 uM) |
| CC(C)(CNc1ccc(C(=O)NC2(C(=O)O)CC2)nn1)c1ccc(F)cc1 [1-[(6-{[2-(4-fluorophenyl)-2-methylpropyl]amino}pyridazin-3-yl)carbonylamino]cyclopropane-carboxylic acid] | D (D=>20 uM) |
| CC(=O)N1CC(CNc2ccc(-c3ccc4[nH]ncc4c3)nn2)(c2ncccc2F)C1 [1-acetyl-3-(3-fluoro(2-pyridyl))-3-{[(6-(1H-indazol-5-yl)pyridazin-3-yl)amino]methyl}azetidine] | D (D=>20 uM) |
| CC(=O)N1CC=C(c2ccc(NCC(C)(C)c3ccc(F)cc3)nn2)CC1 [1-acetyl-4-(6-{[2-(4-fluorophenyl)-2-methylpropyl]amino}pyridazin-3-yl)-1,2,5,6-tetrahydropyridine] | D (D=>20 uM) |
| CC(C)(CNc1ccc(-c2ccccc2C(N)=O)nn1)c1ccc(F)cc1 [2-(6-{[2-(4-fluorophenyl)-2-methylpropyl]amino}pyridazin-3-yl)benzamide] | B (B=1-10 uM) |
| CC(C)(CNc1ccc(-c2cc(C(N)=O)ccn2)nn1)c1ccc(F)cc1 [2-(6-{[2-(4-fluorophenyl)-2-methylpropyl]amino}pyridazin-3-yl)pyridine-4-carboxamide] | A (A=<1 uM) |

same assay, conditions: median AC1.4 class, procedure of Example 39

| Compound | Mean AC1.4 |
| --- | --- |
| CC(O)(c1cnc(-c2ccc(NCC3(c4ncccc4F)CCC3)nn2)s1)C(F)(F)F (centres unmarked) [1,1,1-trifluoro-2-{2-[6-({[(3-fluoro(2-pyridyl))cyclobutyl]methyl}ami-no)pyridazin-3-yl](1,3-thiazol-5-yl)}propan-2-ol] | C (C=10-20 uM) |
| NC(=O)C1CCCN(C(=O)c2cnc(-c3ccc(NCC4(c5ncccc5F)CCC4)nn3)s2)C1 (centres unmarked) [1-({2-[6-({[(3-fluoro-2-pyridyl)cyclobutyl]methyl}ami-no)pyridazin-3-yl]-1,3-thiazol-5-yl}carbonyl)piperidine-3-carboxamide] | C (C=10-20 uM) |
| CC(O)c1cnc(-c2ccc(NCC3(c4ncccc4F)CCC3)nn2)s1 (centres unmarked) [1-{2-[6-({[(3-fluoro-2-pyridyl)cyclobutyl]methyl}ami-no)pyridazin-3-yl]-1,3-thiazol-5-yl}ethan-1-ol] | B (B=1-10 uM) |
| CC(=O)c1cnc(-c2ccc(NCC3(c4ncccc4F)CCC3)nn2)s1 [1-{2-[6-({[(3-fluoro-2-pyridyl)cyclobutyl]methyl}ami-no)pyridazin-3-yl]-1,3-thiazol-5-yl}ethan-1-one] | C (C=10-20 uM) |
| O=C(NCc1cnc(-c2ccc(NCC3(c4ncccc4F)CCC3)nn2)s1)c1ncn[nH]1 [1H-1,2,4-triazol-5-yl-N-({2-[6-({[(3-fluoro(2-pyridyl))cyclobutyl]methyl}ami-no)pyridazin-3-yl](1,3-thiazol-5-yl)}methyl)carboxamide] | A (A=<1 uM) |
| OC(c1cnc(-c2ccc(NCC3(c4ncccc4F)CCC3)nn2)s1)C(F)(F)F (centres unmarked) [2,2,2-trifluoro-1-{2-[6-({[(3-fluoro(2-pyridyl))cyclobutyl]methyl}ami-no)pyridazin-3-yl](1,3-thiazol-5-yl)}ethan-1-ol] | B (B=1-10 uM) |
| OC(O)(c1cnc(-c2ccc(NCC3(c4ncccc4F)CCC3)nn2)s1)C(F)(F)F [2,2,2-trifluoro-1-{2-[6-({[(3-fluoro(2-pyridyl))cyclobutyl]methyl}ami-no)pyridazin-3-yl](1,3-thiazol-5-yl)}ethane-1,1-diol] | B (B=1-10 uM) |
| OC(c1cnc(-c2ccc(NCC3(c4ncccc4F)CCC3)nn2)s1)C(F)F (centres unmarked) [2,2-difluoro-1-{2-[6-({[(3-fluoro(2-pyridyl))cyclobutyl]methyl}ami-no)pyridazin-3-yl](1,3-thiazol-5-yl)}ethan-1-ol] | B (B=1-10 uM) |
| CC(C)(Nc1ccc(-c2ncc(C(N)=O)s2)nn1)c1ncccc1Cl [2-(6-{[1-(3-chloro(2-pyridyl))-isopropyl]amino}pyridazin-3-yl)-1,3-thiazole-5-carboxamide] | B (B=1-10 uM) |
| CC(C)(CNc1ccc(-c2ncc(C(N)=O)s2)nn1)c1ncccc1F [2-(6-{[2-(3-fluoro(2-pyridyl))-2-methylpropyl]amino}pyridazin-3-yl)-1,3-thiazole-5-carboxamide] | A (A=<1 uM) |
| NC(=O)c1cnc(-c2ccc(NCC3(c4ccccn4)CCC3)nn2)s1 [2-(6-{[(2-pyridylcyclobutyl)methyl]ami-no}pyridazin-3-yl)-1,3-thiazole-5-carboxamide] | A (A=<1 uM) |
| O=C(O)c1cnc(-c2ccc(NCC3(c4ccccn4)CCC3)nn2)s1 [2-(6-{[(2-pyridylcyclobutyl)methyl]ami-no}pyridazin-3-yl)-1,3-thiazole-5-carboxylic acid] | C (C=10-20 uM) |
| NC(=O)c1cnc(-c2ccc(NC3(c4ncccc4F)CCC3)nn2)s1 [2-(6-{[(3-fluoro-2-pyridyl)cyclobutyl]amino}pyr-idazin-3-yl)-1,3-thiazole-5-carboxamide] | B (B=1-10 uM) |
| NC(=O)c1cnc(-c2ccc(NC3(c4ccc(F)cc4)CCC3)nn2)s1 [2-(6-{[(4-fluorophenyl)cyclobutyl]ami-no}pyridazin-3-yl)-1,3-thiazole-5-carboxamide] | B (B=1-10 uM) |
| NC(=O)c1ccnc(C2(Nc3ccc(-c4cc(C(N)=O)ccc4F)nn3)CCC2)c1 [2-({[6-(3-carbamoyl-6-fluorophenyl)pyridazin-3-yl]amino}cyclobutyl)pyridine-4-carboxamide] | D (D=>20 uM) |

same assay, conditions: median AC1.4 reported as class; procedure of Example 39

| Compound | Mean AC1.4 |
| --- | --- |
| CS(=O)(=O)N1CCN(Cc2cnc(-c3ccc(NCC4(c5ncccc5F)CCC4)nn3)s2)CC1 [1-({2-[6-({[(3-fluoro(2-pyridyl))cyclobutyl]methyl}ami-no)pyridazin-3-yl](1,3-thiazol-5-yl)}methyl)-4-(methylsulfonyl)piperazine] | D (D=>20 uM) |
| CC(=O)N1CCN(Cc2cnc(-c3ccc(NCC4(c5ncccc5F)CCC4)nn3)s2)CC1 [1-acetyl-4-({2-[6-({[(3-fluoro(2-pyridyl))cyclobutyl]methyl}ami-no)pyridazin-3-yl](1,3-thiazol-5-yl)}methyl)piperazine] | D (D=>20 uM) |
| CNC(=O)Cc1csc(NC(=O)c2ccc(NCC3(c4ncccc4F)CCC3)nn2)n1 [2-(2-{[6-({[(3-fluoro(2-pyridyl))cyclobutyl]methyl}ami-no)pyridazin-3-yl]carbonylamino}(1,3-thiazol-4-yl))-N-methylacetamide] | A (A=<1 uM) |

From patent publication US10076519B2 (CYTOKINETICS, INC., priority 2010, dated 2018)
